Data from patent US9751874B2, “Hydroxy containing FXR (NR1H4) modulating compounds” (Gilead Sciences, Inc., priority 2014, dated 2017).

How the values were obtained:
[1] = biological target: T1, FXR ligand binding domain (Homo sapiens, UniProt Q96RI1); assay: Mammalian One Hybrid (M1H) assay, Gal4 promoter driven transactivation in HEK293 cells; type: cell-based; conditions: Gal4-FXR-LBD luciferase reporter, 16 h
T1 construct: expressed in transfected cells; host or cells: HEK293 cells, transiently transfected with pCMV-BD-FXR-LBD, pFR-Luc and pRL-CMV
T1 sequence (Q96RI1 187-472 isoform Q96RI1-2): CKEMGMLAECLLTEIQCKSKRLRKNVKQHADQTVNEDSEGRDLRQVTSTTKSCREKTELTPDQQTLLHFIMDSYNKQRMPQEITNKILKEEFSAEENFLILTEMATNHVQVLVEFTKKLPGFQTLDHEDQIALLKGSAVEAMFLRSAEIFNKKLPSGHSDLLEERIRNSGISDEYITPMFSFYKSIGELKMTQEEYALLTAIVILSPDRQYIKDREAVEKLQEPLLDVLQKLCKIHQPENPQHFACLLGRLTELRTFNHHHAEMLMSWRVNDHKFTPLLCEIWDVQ
How it was run: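 HEK293 cells were transiently co-transfected with Gal4-DBD fused to the human FXR LBD (aa 187-472, NM_005123), a 5×GAL4-site firefly luciferase reporter and CMV-Renilla control. Compounds were added 2-4 h post-transfection (vehicle ≤0.1%) in charcoal/dextran-stripped FBS medium for 16 h. Firefly and Renilla luciferase were read sequentially, in triplicate.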

[2] = biological target: T2, human FXR alpha ligand binding domain (Homo sapiens, UniProt Q96RI1); assay: FRET activity assay (ligand mediated cofactor peptide interaction, LANCE); type: biochemical; conditions: GST-FXR-LBD / biotinylated SRC-1 peptide (676-700), read-out: F EC50
T2 construct: made in house; host or cells: E. coli BL21(DE3), vector pDEST15
T2 sequence (Q96RI1 187-472 isoform Q96RI1-2): T1 sequence (Q96RI1 187-472 isoform Q96RI1-2)
How it was run: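 GST-tagged FXR LBD (aa 187–472, E. coli-expressed) at 20–60 ng/well with 200–600 nM biotinylated SRC-1 peptide (676–700), streptavidin-APC and Eu anti-GST in Tris pH 7.5 buffer, 1% DMSO, equilibrated 1 h dark at room temperature. TR-FRET read as 665/615 nm ratio; agonists raise signal above basal.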

SMILES	EC50 [1] [µM]	EC50 [2] [µM]
CS(=O)(=O)NC(=O)c1cc(F)c2nc([C@]3(O)CC[C@@H](OCc4c(-c5c(Cl)cccc5Cl)noc4C4CC4)CC3)sc2c1 [Example 16, 2-((1s,4s)-4-((5-Cyclopropyl-3-(2,6-dichlorophenyl)isoxazol-4-yl)methoxy)-1-hydroxycyclohexyl)-4-fluoro-N-(methylsulfonyl)benzo[d]thiazole-6-carboxamide]	1.9	0.022
O=C(NCCN1CCOCC1)c1cc(F)c2nc([C@]3(O)CC[C@@H](OCc4c(-c5c(Cl)cncc5Cl)noc4C4CC4)CC3)sc2c1 [Example 17, 2-((1s,4s)-4-((5-Cyclopropyl-3-(3,5-dichloropyridin-4-yl)isoxazol-4-yl)methoxy)-1-hydroxycyclohexyl)-4-fluoro-N-(2-morpholinoethyl)benzo[d]thiazole-6-carboxamide]	0.67	0.15
NC(=O)c1cc(F)c2nc([C@]3(O)CC[C@@H](OCc4c(-c5c(Cl)cncc5Cl)noc4C4CC4)CC3)sc2c1 [Example 18, 2-((1s,4s)-4-((5-Cyclopropyl-3-(3,5-dichloropyridin-4-yl)isoxazol-4-yl)methoxy)-1-hydroxycyclohexyl)-4-fluorobenzo[d]thiazole-6-carboxamide]	0.44	0.098
CC(C)(O)c1cc(F)c2nc([C@]3(O)CC[C@@H](OCc4c(-c5c(Cl)cncc5Cl)noc4C4CC4)CC3)sc2c1 [Example 20, (1s,4s)-4-((5-Cyclopropyl-3-(3,5-dichloropyridin-4-yl)isoxazol-4-yl)methoxy)-1-(4-fluoro-6-(2-hydroxypropan-2-yl)benzo[d]thiazol-2-yl)cyclohexanol]	0.2	0.15
O[C@]1(c2nc3c(F)cc(-c4nnn[nH]4)cc3s2)CC[C@H](OCc2c(-c3c(Cl)cccc3Cl)noc2C2CC2)CC1 [Example 21, (1s,4s)-4-((5-Cyclopropyl-3-(2,6-dichlorophenyl)isoxazol-4-yl)methoxy)-1-(4-fluoro-6-(1H-tetrazol-5-yl)benzo[d]thiazol-2-yl)cyclohexanol]	1.7	0.064
O=C(O)c1cc(F)c2nc([C@]3(O)[C@@H]4CC[C@H]3C[C@H](OCc3c(-c5c(Cl)c[n+]([O-])cc5Cl)noc3C3CC3)C4)sc2c1 [Example 22, 4-(4-((((1R,3s,5S,8r)-8-(6-Carboxy-4-fluorobenzo[d]thiazol-2-yl)-8-hydroxybicyclo[3.2.1]octan-3-yl)oxy)methyl)-5-cyclopropylisoxazol-3-yl)-3,5-dichloropyridine 1-oxide]	0.14	0.0039
O=C(O)c1cccc2nc([C@]3(O)CC[C@@H](OCc4c(-c5c(Cl)cccc5Cl)noc4C4CC4)CC3)sc12 [Example 26, 2-((1s,4s)-4-((5-Cyclopropyl-3-(2,6-dichlorophenyl)isoxazol-4-yl)methoxy)-1-hydroxycyclohexyl)benzo[d]thiazole-7-carboxylic acid]	0.21	0.017
O=C(O)c1ccnc2cc([C@]3(O)CC[C@@H](OCc4c(-c5c(Cl)cccc5Cl)noc4C4CC4)CC3)ccc12 [Example 29, 7-((1s,4s)-4-((5-cyclopropyl-3-(2,6-dichlorophenyl)isoxazol-4-yl)methoxy)-1-hydroxycyclohexyl)quinoline-4-carboxylic acid]	2.6	0.051
O=C(O)c1ccnc2ccc([C@]3(O)CC[C@@H](OCc4c(-c5c(Cl)cccc5Cl)noc4C4CC4)CC3)cc12 [Example 30, 6-((1s,4s)-4-((5-Cyclopropyl-3-(2,6-dichlorophenyl)isoxazol-4-yl)methoxy)-1-hydroxycyclohexyl)quinoline-4-carboxylic acid]	> 3	0.19
O=C(O)c1ccnc2ccc([C@]3(O)CC[C@H](OCc4c(-c5c(Cl)cccc5Cl)noc4C4CC4)CC3)cc12 [Example 31, 6-((1r,4r)-4-((5-cyclopropyl-3-(2,6-dichlorophenyl)isoxazol-4-yl)methoxy)-1-hydroxycyclohexyl)quinoline-4-carboxylic acid]	> 3	4.9
O=Cc1nsc2ccc([C@]3(O)CC[C@@H](OCc4c(-c5c(Cl)cccc5Cl)noc4C4CC4)CC3)cc12 [Example 32, 5-((1s,4s)-4-((5-Cyclopropyl-3-(2,6-dichlorophenyl)isoxazol-4-yl)methoxy)-1-hydroxycyclohexyl)benzo[d]isothiazole-3-carbaldehyde]	0.4	0.19
O=C(O)c1nsc2ccc([C@]3(O)CC[C@@H](OCc4c(-c5c(Cl)cccc5Cl)noc4C4CC4)CC3)cc12 [Example 33, 5-((1s,4s)-4-((5-Cyclopropyl-3-(2,6-dichlorophenyl)isoxazol-4-yl)methoxy)-1-hydroxycyclohexyl)benzo[d]isothiazole-3-carboxylic acid]	2.7	0.12
O[C@@]1(c2cnc3nn[nH]c3c2)[C@@H]2CC[C@H]1C[C@H](OCc1c(-c3c(Cl)cccc3Cl)noc1C1CC1)C2 [Example 34, (1R,3s,5S,8r)-8-(1H-[1,2,3]Triazolo[4,5-b]pyridin-6-yl)-3-((5-cyclopropyl-3-(2,6-dichlorophenyl)isoxazol-4-yl)methoxy)bicyclo[3.2.1]octan-8-ol]	0.0053	0.0041
O=c1nc(-c2cc(F)c3nc([C@]4(O)[C@@H]5CC[C@H]4C[C@H](OCc4c(-c6c(Cl)cccc6Cl)noc4C4CC4)C5)sc3c2)[nH]o1 [Example 36, 3-(2-((1R,3s,5S,8r)-3-((5-Cyclopropyl-3-(2,6-dichlorophenyl)isoxazol-4-yl)methoxy)-8-hydroxybicyclo[3.2.1]octan-8-yl)-4-fluorobenzo[d]thiazol-6-yl)-1,2,4-oxadiazol-5(2H)-one]	0.037	0.0046
O=C(O)CNC(=O)c1cc(F)c2nc([C@]3(O)[C@@H]4CC[C@H]3C[C@H](OCc3c(-c5c(Cl)cccc5Cl)noc3C3CC3)C4)sc2c1 [Example 38, 2-(2-((1R,3s,5S,8r)-3-((5-Cyclopropyl-3-(2,6-dichlorophenyl)isoxazol-4-yl)methoxy)-8-hydroxybicyclo[3.2.1]octan-8-yl)-4-fluorobenzo[d]thiazole-6-carboxamido)acetic acid]	1.27	0.003

Results, then the compound that gave them:

EC50 [1] [µM]	EC50 [2] [µM]	SMILES
0.029	0.031	O=C(O)c1ccc2nc(C3(O)CCC(OCc4c(-c5c(Cl)cccc5Cl)noc4C4CC4)C3)sc2c1 (centres unmarked) [Example 11-57, 2-(3-((5-Cyclopropyl-3-(2,6-dichlorophenyl)isoxazol-4-yl)methoxy)-1-hydroxy-cyclopentyl)benzo[d]thiazole-6-carboxylic acid]
0.55	0.025	O=C(O)c1ccc2nc([C@]3(O)CC[C@@H](OCc4c(-c5c(Cl)cccc5Cl)noc4C4CC4)CC3)sc2c1F [Example 14-1, 2-((1s,4s)-4-((5-Cyclopropyl-3-(2,6-dichlorophenyl)isoxazol-4-yl)methoxy)-1-hydroxycyclohexyl)-7-fluorobenzo[d]thiazole-6-carboxylic acid]
2.7	0.032	O=C(O)c1c(F)cc2nc([C@]3(O)CC[C@@H](OCc4c(-c5c(Cl)cccc5Cl)noc4C4CC4)CC3)sc2c1F [Example 14-2, 2-((1s,4s)-4-((5-Cyclopropyl-3-(2,6-dichlorophenyl)isoxazol-4-yl)methoxy)-1-hydroxycyclohexyl)-5,7-difluorobenzo[d]thiazole-6-carboxylic acid]
0.52	0.041	O=C(O)C1(Oc2cc(F)cc([C@]3(O)[C@@H]4CC[C@H]3C[C@H](OCc3c(-c5c(Cl)cccc5Cl)noc3C3CC3)C4)c2)CC1 [Example 14-3, 1-(3-((1R,3s,5S,8r)-3-((5-Cyclopropyl-3-(2,6-dichlorophenyl)isoxazol-4-yl)methoxy)-8-hydroxybicyclo[3.2.1]octan-8-yl)-5-fluorophenoxy)cyclopropanecarboxylic acid]
0.077	0.037	O[C@@]1(c2nc3ccc(Br)cc3s2)[C@@H]2CC[C@H]1C[C@H](OCc1c(-c3c(Cl)cccc3Cl)noc1C1CC1)C2 [Example 15-1, (1R,3s,5S,8r)-8-(6-Bromobenzo[d]thiazol-2-yl)-3-((5-cyclopropyl-3-(2,6-dichlorophenyl)isoxazol-4-yl)methoxy)bicyclo[3.2.1]octan-8-ol]
0.14	0.049	OC1(c2nc3ccccc3s2)C2CC3CC1CC(OCc1c(-c4c(Cl)cccc4Cl)noc1C1CC1)(C3)C2 [Example 24a, (1R,2r,3S,5s,7s)-2-(Benzo[d]thiazol-2-yl)-5-((5-cyclopropyl-3-(2,6-dichlorophenyl)isoxazol-4-yl)methoxy)adamantan-2-ol]
0.73	0.24	O[C@@]1(c2nc3ccccc3s2)[C@@H]2CC3C[C@H]1C[C@](OCc1c(-c4c(Cl)cccc4Cl)noc1C1CC1)(C3)C2 [Example 24b, (1R,2s,3S,5s,7s)-2-(benzo[d]thiazol-2-yl)-5-((5-cyclopropyl-3-(2,6-dichlorophenyl)isoxazol-4-yl)methoxy)adamantan-2-ol]
